SMILES strings stand for the structures.

For this assay, the target named is T1, GLUT1 (Homo sapiens, UniProt P11166).
T1 sequence (P11166 1-492): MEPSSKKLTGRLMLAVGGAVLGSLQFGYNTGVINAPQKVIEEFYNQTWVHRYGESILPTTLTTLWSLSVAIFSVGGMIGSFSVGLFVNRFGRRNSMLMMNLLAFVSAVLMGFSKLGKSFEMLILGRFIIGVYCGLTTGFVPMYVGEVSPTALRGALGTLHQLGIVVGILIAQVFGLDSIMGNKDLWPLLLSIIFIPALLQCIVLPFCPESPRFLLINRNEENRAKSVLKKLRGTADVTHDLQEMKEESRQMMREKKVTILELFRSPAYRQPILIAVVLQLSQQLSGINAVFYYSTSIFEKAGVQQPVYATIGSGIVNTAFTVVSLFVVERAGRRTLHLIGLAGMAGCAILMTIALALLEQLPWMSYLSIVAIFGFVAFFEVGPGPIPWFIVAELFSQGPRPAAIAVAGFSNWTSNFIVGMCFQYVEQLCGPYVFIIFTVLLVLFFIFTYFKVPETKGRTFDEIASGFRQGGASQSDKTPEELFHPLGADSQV
The experiment in a line: Indirect measurement of GLUT1 activity by quantification of intracellular ATP levels (glucose induced ATP increase). It is filed as cell-based. On the set-up: endogenous in cells; host or cells: DLD1 or CHO-K1. As to conditions: read-out: IC50 regarding glucose induced ATP increase (GLUT1 inhibition). In short, it runs like this:
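Intracellular ATP was measured by CellTiter-Glo luminescence as an indirect readout of transport: glucose-driven for GLUT1, fructose-driven for GLUT2. DLD1 or CHO-K1 cells were used alongside an oxidative phosphorylation inhibitor. Beforehand, cells were held overnight in glucose-free 1% FCS medium to deplete ATP.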
`Cc1c(NC(=O)c2cc(C(F)(F)F)nc3c(Cl)cc(Cl)cc23)c(C(F)(F)F)nn1Cc1ccc(F)cc1` [Example 38, 6,8-dichloro-N-[1-(4-fluorobenzyl)-5-methyl-3-(trifluoromethyl)-1H-pyrazol-4-yl]-2-(trifluoromethyl)quinoline-4-carboxamide]: the IC50 is 0.0295 µM.

On to `Cc1nn(Cc2ccc(C(=O)N(C)C)cc2)c(C)c1NC(=O)c1cc(C(F)(F)F)nc2ccc(Br)cc12` [Example 143, 6-bromo-N-{1-[4-(dimethylcarbamoyl)benzyl]-3,5-dimethyl-1H-pyrazol-4-yl}-2-(trifluoromethyl)quinoline-4-carboxamide], for which the IC50 amounted to 0.0853 µM.

On to `Cc1nn(Cc2ccc(F)cc2)c(C)c1NC(=O)c1cc(C(F)(F)F)nc2c(Cl)cc(Cl)cc12` [Example 25, 6,8-dichloro-N-[1-(4-fluorobenzyl)-3,5-dimethyl-1H-pyrazol-4-yl]-2-(trifluoromethyl)quinoline-4-carboxamide], for which the IC50 came to 0.0157 µM.

`Cc1ccc2nc(C)cc(C(=O)Nc3c(C(F)(F)F)nn(Cc4ccc(F)c(F)c4)c3C)c2c1` [Example 203, N-[1-(3,4-difluorobenzyl)-5-methyl-3-(trifluoromethyl)-1H-pyrazol-4-yl]-2,6-dimethylquinoline-4-carboxamide]: the IC50 turned out to be 0.602 µM.

As to `Cc1c(NC(=O)c2cc(C(N)=O)nc3ccccc23)c(C(F)(F)F)nn1CCc1ccc(F)cc1` [Example 1371], the IC50 turned out to be 0.144 µM.

As for `CCc1c(NC(=O)c2cc(C(N)=O)nc3cc(F)c(Cl)cc23)c(C(F)(F)F)nn1Cc1ccc(C#N)cc1` [Example 314, 6-chloro-N^4-[1-(4-cyanobenzyl)-5-ethyl-3-(trifluoromethyl)-1H-pyrazol-4-yl]-7-fluoroquinoline-2,4-dicarboxamide], the IC50 was determined as 0.0016 µM.

As for `Cc1nn(CCc2ccc(F)cc2)c(C)c1NC(=O)c1cc(C(N)=O)nc2ccccc12` [Example 1100], the IC50 is 0.0421 µM.

On to `Cc1nn(Cc2cscn2)c(C)c1NC(=O)c1cc(C(F)(F)F)nc2ccc(Br)cc12` [Example 1351], for which the IC50 turned out to be 0.134 µM.

Take `Cc1nn(Cc2ncccc2C#N)c(C)c1NC(=O)c1cc(C(N)=O)nc2ccccc12` [Example 1082]: the IC50 stood at 0.0282 µM.

`COc1cc(Cn2nc(C)c(NC(=O)c3cc(C)nc4ccc(C)cc34)c2C)cc(OC)c1` [Example 1293]: the IC50 was found to be 7.79 µM.

As to `Cc1nn(Cc2ncccc2C#N)c(C)c1NC(=O)c1cc(C(N)=O)nc2cccc(F)c12` [Example 1410], the IC50 worked out at 0.0306 µM.

For the compound `CNS(=O)(=O)c1cc(C(=O)Nc2c(C(F)(F)F)nn(Cc3ccc(C#N)cc3)c2C)c2ccccc2n1` [Example 1574], the IC50 amounted to 0.0493 µM.

Consider `Cc1nn(Cc2ccc(C(=O)NC[C@H](O)CO)cc2)c(C)c1NC(=O)c1cc(C(F)(F)F)nc2ccc(Br)cc12` [Example 1112], for which the IC50 stood at 0.057 µM.

For the compound `Cc1nn(Cc2ccc(C#N)cc2F)c(C)c1NC(=O)c1cc(C(N)=O)nc2cccc(F)c12` [Example 301, N^4-[1-(4-cyano-2-fluorobenzyl)-3,5-dimethyl-1H-pyrazol-4-yl]-5-fluoroquinoline-2,4-dicarboxamide], the IC50 stood at 0.0005 µM.

Consider `Cc1c(NC(=O)c2cc(S(C)(=O)=NC#N)nc3ccccc23)c(C(F)(F)F)nn1Cc1ccc(C#N)cc1` (racemic) [Example 386, (±)-N-[1-(4-cyanobenzyl)-5-methyl-3-(trifluoromethyl)-1H-pyrazol-4-yl]-2-(N-cyano-S-methylsulfonimidoyl)quinoline-4-carboxamide], for which the IC50 stood at 0.0432 µM.

Regarding `Cc1nn(Cc2ccc(C(=O)NCC3(CO)COC3)cn2)c(C)c1NC(=O)c1cc(C(F)(F)F)nc2ccc(Br)cc12` [Example 1239], the IC50 stood at 1.47 µM.

In the case of `Cc1c(NC(=O)c2cc(C(N)=O)nc3cccc(F)c23)c(C(F)(F)F)nn1Cc1ccc(C#N)nc1` [Example 291, N^4-{1-[(6-cyanopyridin-3-yl)methyl]-5-methyl-3-(trifluoromethyl)-1H-pyrazol-4-yl}-5-fluoroquinoline-2,4-dicarboxamide], the IC50 stood at 0.0069 µM.

With `Cc1c(NC(=O)c2cc(C(N)=O)nc3cc(F)c(Cl)cc23)c(C(F)(F)F)nn1Cc1c(F)cc(C#N)cc1F` [Example 398, 6-chloro-N^4-[1-(4-cyano-2,6-difluorobenzyl)-5-methyl-3-(trifluoromethyl)-1H-pyrazol-4-yl]-7-fluoroquinoline-2,4-dicarboxamide], the IC50 was 0.0055 µM.

Take `Cc1nn(Cc2ccc(C(F)(F)F)cc2)c(C)c1NC(=O)c1cc(C(F)(F)F)nc2ccc(Br)cc12` [Example 1302]: the IC50 turned out to be 11.1 µM.

For `Cc1nn(Cc2ccc(S(C)(=O)=O)cc2)c(C)c1NC(=O)c1cc(C(N)=O)nc2cccc(F)c12` [Example 1484], the IC50 was 0.0234 µM.

For the compound `Cc1ccccc1Cn1nc(C(F)(F)F)c(NC(=O)c2cc(C(N)=O)nc3ccccc23)c1C` [Example 1494], the IC50 was 0.0083 µM.

Take `COc1cc(Cn2nc(C(F)(F)F)c(NC(=O)c3cc(C(N)=O)nc4cc(F)c(Cl)cc34)c2C)ccc1C#N` [Example 1666]: the half-inhibitory concentration (IC50) was determined as 0.0008 µM.

Turning to `Cc1nn(Cc2ccc(C#N)cc2)c(C(F)(F)F)c1NC(=O)c1cc(C(N)=O)nc2cc(F)ccc12` [Example 389, N^4-[1-(4-cyanobenzyl)-3-methyl-5-(trifluoromethyl)-1H-pyrazol-4-yl]-7-fluoroquinoline-2,4-dicarboxamide], the IC50 came to 0.0019 µM.

Consider `COc1cc(C(=O)Nc2c(C)nn(Cc3cccc(C(F)(F)F)c3)c2C)c2ccccc2n1` [Example 1303], for which the IC50 amounted to 11.1 µM.

`Cc1nn(Cc2ccc(C(=O)N3CCC(O)C3)cc2)c(C)c1NC(=O)c1cc(C(F)(F)F)nc2ccc(Br)cc12` (racemic) [Example 1161]: the IC50 was 0.162 µM.

Consider `Cc1nn(Cc2ccc(F)c(F)c2)c(C)c1NC(=O)c1cc(C(F)(F)F)nc2cc(Br)ccc12` [Example 189, 7-bromo-N-[1-(3,4-difluorobenzyl)-3,5-dimethyl-1H-pyrazol-4-yl]-2-(trifluoromethyl)quinoline-4-carboxamide], for which the IC50 was determined as 0.165 µM.

As to `COCCNC(=O)c1ccc(Cn2nc(C(F)(F)F)c(NC(=O)c3cc(C(F)(F)F)nc4ccc(Br)cc34)c2C)nc1` [Example 1115], the IC50 turned out to be 0.0594 µM.

Regarding `Cc1nn(Cc2ccccc2C#N)c(C)c1NC(=O)c1cc(C(N)=O)nc2cc(F)c(Cl)cc12` [Example 215, 6-chloro-N^4-[1-(2-cyanobenzyl)-3,5-dimethyl-1H-pyrazol-4-yl]-7-fluoroquinoline-2,4-dicarboxamide], the IC50 is 0.0016 µM.

Regarding `Cc1nn(Cc2ccc(C(=O)NCC3(C)COC3)cn2)c(C)c1NC(=O)c1cc(C(F)(F)F)nc2ccc(Br)cc12` [Example 1159], the IC50 is 0.16 µM.

On to `CC(=O)c1ccc(Cn2nc(C)c(NC(=O)c3cc(C(N)=O)nc4cc(F)ccc34)c2C)cc1` [Example 1608], for which the IC50 came out at 0.004 µM.

As to `Cc1nn(Cc2ccc(C(=O)N3CCC3)cc2)c(C)c1NC(=O)c1cc(C(N)=O)nc2cc(F)ccc12` [Example 1419], the IC50 worked out at 0.0246 µM.

`COc1cc(C#N)ccc1Cn1nc(C(F)(F)F)c(NC(=O)c2cc(C(N)=O)nc3cc(F)c(Cl)cc23)c1C` [Example 1648]: the half-inhibitory concentration (IC50) amounted to 0.0023 µM.

For the compound `Cc1c(NC(=O)c2cc(C(N)=O)nc3cc(F)ccc23)c(C(F)(F)F)nn1Cc1ccc(CC(F)(F)F)cc1` [Example 1714], the IC50 worked out at 0.0064 µM.

Regarding `Cc1nn(Cc2cc(F)ccc2F)c(C)c1NC(=O)c1cc(C(F)(F)F)nc2ccc(Br)cc12` [Example 1238], the IC50 came out at 1.37 µM.

For the compound `COC(=O)c1ccc2nc(C(F)(F)F)cc(C(=O)Nc3c(C)nn(Cc4ccc(F)cc4)c3C)c2c1` [Example 149, methyl 4-{[1-(4-fluorobenzyl)-3,5-dimethyl-1H-pyrazol-4-yl]carbamoyl}-2-(trifluoromethyl)quinoline-6-carboxylate], the IC50 was determined as 0.0117 µM.

For the compound `Cc1nn(Cc2ccc(C(=O)NCCNC(=O)C3CC3)cc2)c(C)c1NC(=O)c1cc(C(F)(F)F)nc2ccc(Br)cc12` [Example 1098], the IC50 came out at 0.0414 µM.

Consider `Cc1nn(CC2CCN(C(=O)OC(C)(C)C)CC2)c(C)c1NC(=O)c1cc(C(N)=O)nc2ccccc12` [Example 405, tert-butyl 4-[(4-{[(2-carbamoylquinolin-4-yl)carbonyl]amino}-3,5-dimethyl-1H-pyrazol-1-yl)methyl]piperidine-1-carboxylate], for which the IC50 is 0.242 µM.

In the case of `Cc1nn(Cc2cccc(C(F)(F)F)c2)c(C)c1NC(=O)c1cc(C(F)(F)F)nc2ccc(Br)cc12` [Example 1297], the IC50 amounted to 11.1 µM.

As for `Cc1nn(Cc2ccc(C(=O)N(C)C)cc2)c(C)c1NC(=O)c1cc(C(N)=O)nc2cc(F)ccc12` [Example 1426], the IC50 came to 0.08 µM.

Take `Cc1c(NC(=O)c2cc(C(N)=O)nc3ccc(Br)cc23)c(C(F)(F)F)nn1Cc1ccc(C#N)cc1` [Example 250]: the IC50 was 0.0036 µM.

As for `Cc1nn(Cc2cccc(C#N)c2)c(C)c1NC(=O)c1cc(C(F)(F)F)nc2ccc(Br)cc12` [Example 71, 6-bromo-N-[1-(3-cyanobenzyl)-3,5-dimethyl-1H-pyrazol-4-yl]-2-(trifluoromethyl)quinoline-4-carboxamide], the IC50 worked out at 0.175 µM.

`CCOC(=O)c1nn(Cc2ccc(F)cc2)c(C)c1NC(=O)c1cc(C(F)(F)F)nc2ccc(Br)cc12` [Example 1225]: the concentration for half-maximal inhibition (IC50) was found to be 0.914 µM.

By IC50 is commonly meant the concentration that gives 50% inhibition.
